Experimental data: ChEMBL document CHEMBL4765285, “Discovery of orally active indirubin-3'-oxime derivatives as potent type 1 FLT3 inhibitors for acute myeloid leukemia” (Eur J Med Chem, 2020)
Activity calls are given as the source filed them. No cut-off for these calls is given here.

Key:
MOLM-14 [1] = assay: cells; settings: Homo sapiens
Description: Antiproliferative activity against human MOLM14 cells harboring ITD/F691L mutant assessed as cell growth inhibition by MTT assay

MOLM-14 [2] = assay: cells; settings: Homo sapiens; remark: listed apart in the source
Description: Antiproliferative activity against human MOLM14 cells harboring ITD mutant assessed as cell growth inhibition by MTT assay

[3] = target: T1, Proto-oncogene tyrosine-protein kinase Src (Homo sapiens, UniProt P12931); assay: Inhibition of human c-SRC in presence of ATP
MV4-11 = assay: cells; settings: Homo sapiens, MV4-11, 72 h
Description: Antiproliferative activity against human MV4-11 cells assessed as cell growth inhibition after 72 hrs by WST assay

[4] = AUClast in ICR mouse at 10 mg/kg, iv or po measured up to 1440 mins by LC-MS/MS analysis; format: ADME, organism-based; parameters: dose 10 mg/kg, time <=1440; settings: in vivo
[5] = target: Receptor-type tyrosine-protein kinase FLT3 (Homo sapiens) (UniProt P36888); assay: Inhibition of FLT3 in human MV4-11 cells assessed as reduction in Erk1/2 phosphorylation at 0.01 to 1 uM incubated for 4 hrs by Western blot analysis; format: cell-based; settings: dose 0.01-1 µM
[6] = target: Cyclin-dependent kinase 5 (Homo sapiens) (UniProt Q00535); assay: Inhibition of human CDK5 at 100 nM in presence of ATP relative to control
hERG (KCNH2) = hERG (KCNH2) (Homo sapiens, UniProt Q12809); assay: Inhibition of human ERG at 10 uM relative to control
[7] = target: T2, BDNF/NT-3 growth factors receptor (Homo sapiens, UniProt Q16620); assay: Inhibition of human TrkB in presence of ATP
[8] = target: T1, Proto-oncogene tyrosine-protein kinase Src; assay: Inhibition of human c-SRC at 100 nM in presence of ATP relative to control
[9] = Toxicity in BALB/c nu/nu mouse xenografted with human MV4-11 cells assessed as body weight loss at 20 mg/kg, po administered for 21 days; format: organism-based; settings: in vivo, 504 h, time 21 day
[10] = target: Tyrosine-protein kinase Mer (Homo sapiens) (UniProt Q12866); assay: Inhibition of human MER at 100 nM in presence of ATP relative to control
[11] = target: Platelet-derived growth factor receptor alpha (Homo sapiens) (UniProt P16234); assay: Inhibition of human PDGFRa at 100 nM in presence of ATP relative to control
MDA-MB-231 = assay: cells; settings: Homo sapiens, MDA-MB-231, read-out: INH
Description: Antiproliferative activity against human MDA-MB-231 cells assessed as cell growth inhibition at 1 uM by WST assay relative to control

MOLM-14 [12] = assay: cells; settings: Homo sapiens; remark: listed apart in the source
Description: Antiproliferative activity against human MOLM14 cells harboring ITD/D835Y mutant assessed as cell growth inhibition by MTT assay

[13] = target: Vascular endothelial growth factor receptor 3 (Homo sapiens, UniProt P35916); assay: Inhibition of human FLT4 at 100 nM in presence of ATP relative to control
[14] = target: T3, Maternal embryonic leucine zipper kinase (Homo sapiens, UniProt Q14680); assay: Inhibition of human MELK at 100 nM in presence of ATP relative to control
Target sequence in this assay (Q14680 whole entry, looked up): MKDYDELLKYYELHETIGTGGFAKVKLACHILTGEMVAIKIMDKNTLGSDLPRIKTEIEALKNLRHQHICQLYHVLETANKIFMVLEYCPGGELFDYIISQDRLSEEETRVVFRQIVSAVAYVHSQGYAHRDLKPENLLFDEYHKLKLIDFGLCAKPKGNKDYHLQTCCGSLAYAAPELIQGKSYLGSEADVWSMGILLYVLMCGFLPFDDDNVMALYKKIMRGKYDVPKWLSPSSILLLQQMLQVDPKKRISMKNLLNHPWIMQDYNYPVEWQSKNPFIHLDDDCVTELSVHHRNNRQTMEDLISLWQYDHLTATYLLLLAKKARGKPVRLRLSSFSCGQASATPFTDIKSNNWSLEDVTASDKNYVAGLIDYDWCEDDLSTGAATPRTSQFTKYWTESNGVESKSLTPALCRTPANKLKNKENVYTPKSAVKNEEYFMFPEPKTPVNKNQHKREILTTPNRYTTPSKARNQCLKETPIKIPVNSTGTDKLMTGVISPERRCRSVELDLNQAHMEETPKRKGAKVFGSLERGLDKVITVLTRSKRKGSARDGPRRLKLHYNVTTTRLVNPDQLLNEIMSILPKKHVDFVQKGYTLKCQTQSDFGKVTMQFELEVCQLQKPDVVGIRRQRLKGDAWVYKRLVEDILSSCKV

[15] = Acute toxicity in ICR female mouse assessed as approximate lethal dose; settings: in vivo
[16] = target: High affinity nerve growth factor receptor (Homo sapiens, UniProt P04629); assay: Inhibition of human TrkA in presence of ATP
[17] = target: Receptor-type tyrosine-protein kinase FLT3 (Homo sapiens) (UniProt P36888); assay: Inhibition of FLT3 in human MV4-11 cells assessed as reduction in STAT5 phosphorylation at 10 nM incubated for 4 hrs by Western blot analysis; format: cell-based
[18] = target: T2, BDNF/NT-3 growth factors receptor; assay: Inhibition of human TrkB at 100 nM in presence of ATP relative to control
Target sequence in this assay (Q16620 32-822 limits assumed): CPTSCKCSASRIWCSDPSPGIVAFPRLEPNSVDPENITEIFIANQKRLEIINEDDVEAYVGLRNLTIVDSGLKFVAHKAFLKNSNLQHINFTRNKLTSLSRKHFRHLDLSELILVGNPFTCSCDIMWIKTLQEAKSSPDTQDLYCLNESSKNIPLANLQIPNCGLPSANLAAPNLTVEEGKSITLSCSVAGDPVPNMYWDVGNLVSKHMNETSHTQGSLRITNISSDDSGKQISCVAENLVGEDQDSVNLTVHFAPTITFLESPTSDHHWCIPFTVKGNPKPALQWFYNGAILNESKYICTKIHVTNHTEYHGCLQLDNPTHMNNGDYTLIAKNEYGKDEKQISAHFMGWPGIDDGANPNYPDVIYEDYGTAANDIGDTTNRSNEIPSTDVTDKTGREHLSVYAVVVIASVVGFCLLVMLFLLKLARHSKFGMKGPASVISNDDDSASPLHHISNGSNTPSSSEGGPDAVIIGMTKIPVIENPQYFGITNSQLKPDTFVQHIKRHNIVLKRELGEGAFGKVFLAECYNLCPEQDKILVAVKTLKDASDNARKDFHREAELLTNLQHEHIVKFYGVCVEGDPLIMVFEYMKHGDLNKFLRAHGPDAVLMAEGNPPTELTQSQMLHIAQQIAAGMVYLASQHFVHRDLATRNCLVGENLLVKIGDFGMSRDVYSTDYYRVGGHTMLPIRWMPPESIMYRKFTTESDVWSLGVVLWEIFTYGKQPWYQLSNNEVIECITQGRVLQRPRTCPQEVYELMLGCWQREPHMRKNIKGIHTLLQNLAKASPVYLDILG

MOLM-14 [19] = assay: cells; settings: Homo sapiens; remark: listed apart in the source
Description: Antiproliferative activity against wild type human MOLM14 cells assessed as cell growth inhibition by MTT assay

[20] = test system: Receptor-type tyrosine-protein kinase FLT3 (Homo sapiens), P36888 [D835Y]; assay: Inhibition of human FLT3 D835Y mutant at 100 nM in presence of ATP relative to control
[21] = Selectivity index, ratio of GI50 for human K562 cells to GI50 for human MV4-11 cells; format: functional
[22] = target: Cyclin-dependent kinase 1 (Homo sapiens) (UniProt P06493); assay: Inhibition of human CDK1 at 100 nM in presence of ATP relative to control
[23] = target: Proto-oncogene tyrosine-protein kinase receptor Ret (Homo sapiens, UniProt P07949); assay: Inhibition of human RET in presence of ATP
[24] = target: T4, Receptor-type tyrosine-protein kinase FLT3 (Homo sapiens, UniProt P36888)
T4 sequence (P36888 whole entry): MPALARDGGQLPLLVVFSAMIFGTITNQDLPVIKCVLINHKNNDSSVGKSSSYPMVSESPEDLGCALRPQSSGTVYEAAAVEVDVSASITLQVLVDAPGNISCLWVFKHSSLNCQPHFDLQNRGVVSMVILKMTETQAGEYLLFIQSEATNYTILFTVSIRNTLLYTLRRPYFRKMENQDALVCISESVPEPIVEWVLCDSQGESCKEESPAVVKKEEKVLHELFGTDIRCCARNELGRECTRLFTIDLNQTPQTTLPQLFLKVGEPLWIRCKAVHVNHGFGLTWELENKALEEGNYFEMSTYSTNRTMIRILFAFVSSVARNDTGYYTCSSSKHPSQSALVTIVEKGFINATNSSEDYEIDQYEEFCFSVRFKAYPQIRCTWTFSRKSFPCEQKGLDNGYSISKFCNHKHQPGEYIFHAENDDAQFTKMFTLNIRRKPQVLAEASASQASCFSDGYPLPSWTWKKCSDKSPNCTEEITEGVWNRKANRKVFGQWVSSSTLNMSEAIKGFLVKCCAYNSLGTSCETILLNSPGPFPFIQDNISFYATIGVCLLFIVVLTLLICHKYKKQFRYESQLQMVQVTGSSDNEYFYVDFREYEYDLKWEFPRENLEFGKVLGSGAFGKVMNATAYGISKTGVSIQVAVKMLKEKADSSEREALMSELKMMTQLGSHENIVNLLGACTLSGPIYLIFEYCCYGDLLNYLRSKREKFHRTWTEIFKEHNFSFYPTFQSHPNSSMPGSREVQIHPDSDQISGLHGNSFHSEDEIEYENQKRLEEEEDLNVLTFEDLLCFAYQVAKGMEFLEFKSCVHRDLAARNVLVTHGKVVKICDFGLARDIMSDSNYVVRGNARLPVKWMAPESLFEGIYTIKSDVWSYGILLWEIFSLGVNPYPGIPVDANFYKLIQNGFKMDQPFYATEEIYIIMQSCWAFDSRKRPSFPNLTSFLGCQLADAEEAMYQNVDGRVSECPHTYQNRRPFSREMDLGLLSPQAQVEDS
Description: Inhibition of recombinant His-tagged human FLT3 expressed in baculovirus expression system using peptide substrate incubated for 30 mins in presence of ATP by HTRF assay

[25] = target: Receptor-type tyrosine-protein kinase FLT3 (Homo sapiens) (UniProt P36888); assay: Inhibition of human FLT3 at 100 nM in presence of ATP relative to control
[26] = target: T3, Maternal embryonic leucine zipper kinase; assay: Inhibition of human MELK in presence of ATP
Target sequence in this assay (Q14680 whole entry): as the sequence (Q14680 whole entry, looked up) above

[27] = target: Tyrosine-protein kinase Mer (Homo sapiens, UniProt Q12866); assay: Inhibition of human MER in presence of ATP
[28] = Oral bioavailability in ICR mouse at 10 mg/kg measured up to 1440 mins by LC-MS/MS analysis; format: ADME, organism-based; settings: in vivo

T1 sequence (P12931 2-536 limits assumed): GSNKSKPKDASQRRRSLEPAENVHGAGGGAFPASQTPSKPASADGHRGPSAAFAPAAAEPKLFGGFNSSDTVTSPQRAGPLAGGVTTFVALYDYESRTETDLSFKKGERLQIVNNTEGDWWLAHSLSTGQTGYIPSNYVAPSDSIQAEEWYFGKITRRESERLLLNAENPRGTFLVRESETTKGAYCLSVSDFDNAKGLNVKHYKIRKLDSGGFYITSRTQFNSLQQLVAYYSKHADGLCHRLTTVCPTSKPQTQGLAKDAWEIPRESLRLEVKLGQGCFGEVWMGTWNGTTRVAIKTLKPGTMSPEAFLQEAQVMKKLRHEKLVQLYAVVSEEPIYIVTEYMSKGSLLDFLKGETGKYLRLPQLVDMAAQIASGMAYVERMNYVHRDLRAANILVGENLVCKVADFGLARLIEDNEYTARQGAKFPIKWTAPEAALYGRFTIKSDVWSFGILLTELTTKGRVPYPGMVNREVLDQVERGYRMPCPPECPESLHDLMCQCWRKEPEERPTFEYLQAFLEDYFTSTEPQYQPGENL
Cyclin-dependent kinase 1 (Homo sapiens), sequence (P06493 whole entry, looked up): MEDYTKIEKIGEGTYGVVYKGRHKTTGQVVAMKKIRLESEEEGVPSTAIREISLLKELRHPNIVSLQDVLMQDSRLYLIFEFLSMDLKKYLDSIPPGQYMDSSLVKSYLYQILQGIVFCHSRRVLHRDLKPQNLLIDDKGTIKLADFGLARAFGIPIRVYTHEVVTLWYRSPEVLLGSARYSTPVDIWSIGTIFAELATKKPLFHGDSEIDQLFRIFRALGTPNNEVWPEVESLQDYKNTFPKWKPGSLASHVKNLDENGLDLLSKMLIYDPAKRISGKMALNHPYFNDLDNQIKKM
Tyrosine-protein kinase Mer (Homo sapiens), sequence (Q12866 whole entry): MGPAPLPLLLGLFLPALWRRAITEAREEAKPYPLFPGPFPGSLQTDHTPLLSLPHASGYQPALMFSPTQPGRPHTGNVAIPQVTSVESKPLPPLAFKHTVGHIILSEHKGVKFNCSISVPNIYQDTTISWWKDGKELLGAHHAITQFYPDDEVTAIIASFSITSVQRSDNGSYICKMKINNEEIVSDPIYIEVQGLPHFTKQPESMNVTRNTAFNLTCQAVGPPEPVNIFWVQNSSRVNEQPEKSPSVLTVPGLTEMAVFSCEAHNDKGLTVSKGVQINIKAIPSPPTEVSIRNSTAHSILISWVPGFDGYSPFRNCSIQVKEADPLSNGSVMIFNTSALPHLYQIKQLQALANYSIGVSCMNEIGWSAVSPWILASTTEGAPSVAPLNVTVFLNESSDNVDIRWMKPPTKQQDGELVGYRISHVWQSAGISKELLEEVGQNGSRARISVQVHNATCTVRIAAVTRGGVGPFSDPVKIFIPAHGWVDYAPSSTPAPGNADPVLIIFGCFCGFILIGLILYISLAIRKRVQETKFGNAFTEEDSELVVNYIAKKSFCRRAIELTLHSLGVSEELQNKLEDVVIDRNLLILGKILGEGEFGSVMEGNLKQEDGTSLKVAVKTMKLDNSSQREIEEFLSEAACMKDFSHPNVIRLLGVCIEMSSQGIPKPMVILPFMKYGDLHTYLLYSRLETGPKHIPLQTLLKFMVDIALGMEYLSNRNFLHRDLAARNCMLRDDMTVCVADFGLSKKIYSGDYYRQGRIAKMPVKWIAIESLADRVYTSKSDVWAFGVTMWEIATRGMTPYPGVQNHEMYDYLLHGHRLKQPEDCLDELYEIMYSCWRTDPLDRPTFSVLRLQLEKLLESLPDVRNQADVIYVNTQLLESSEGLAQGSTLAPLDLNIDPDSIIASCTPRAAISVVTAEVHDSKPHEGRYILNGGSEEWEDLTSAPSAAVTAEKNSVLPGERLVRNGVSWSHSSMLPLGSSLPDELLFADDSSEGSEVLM
Tyrosine-protein kinase Mer, sequence (Q12866 whole entry): as above
hERG (KCNH2), sequence (Q12809 whole entry): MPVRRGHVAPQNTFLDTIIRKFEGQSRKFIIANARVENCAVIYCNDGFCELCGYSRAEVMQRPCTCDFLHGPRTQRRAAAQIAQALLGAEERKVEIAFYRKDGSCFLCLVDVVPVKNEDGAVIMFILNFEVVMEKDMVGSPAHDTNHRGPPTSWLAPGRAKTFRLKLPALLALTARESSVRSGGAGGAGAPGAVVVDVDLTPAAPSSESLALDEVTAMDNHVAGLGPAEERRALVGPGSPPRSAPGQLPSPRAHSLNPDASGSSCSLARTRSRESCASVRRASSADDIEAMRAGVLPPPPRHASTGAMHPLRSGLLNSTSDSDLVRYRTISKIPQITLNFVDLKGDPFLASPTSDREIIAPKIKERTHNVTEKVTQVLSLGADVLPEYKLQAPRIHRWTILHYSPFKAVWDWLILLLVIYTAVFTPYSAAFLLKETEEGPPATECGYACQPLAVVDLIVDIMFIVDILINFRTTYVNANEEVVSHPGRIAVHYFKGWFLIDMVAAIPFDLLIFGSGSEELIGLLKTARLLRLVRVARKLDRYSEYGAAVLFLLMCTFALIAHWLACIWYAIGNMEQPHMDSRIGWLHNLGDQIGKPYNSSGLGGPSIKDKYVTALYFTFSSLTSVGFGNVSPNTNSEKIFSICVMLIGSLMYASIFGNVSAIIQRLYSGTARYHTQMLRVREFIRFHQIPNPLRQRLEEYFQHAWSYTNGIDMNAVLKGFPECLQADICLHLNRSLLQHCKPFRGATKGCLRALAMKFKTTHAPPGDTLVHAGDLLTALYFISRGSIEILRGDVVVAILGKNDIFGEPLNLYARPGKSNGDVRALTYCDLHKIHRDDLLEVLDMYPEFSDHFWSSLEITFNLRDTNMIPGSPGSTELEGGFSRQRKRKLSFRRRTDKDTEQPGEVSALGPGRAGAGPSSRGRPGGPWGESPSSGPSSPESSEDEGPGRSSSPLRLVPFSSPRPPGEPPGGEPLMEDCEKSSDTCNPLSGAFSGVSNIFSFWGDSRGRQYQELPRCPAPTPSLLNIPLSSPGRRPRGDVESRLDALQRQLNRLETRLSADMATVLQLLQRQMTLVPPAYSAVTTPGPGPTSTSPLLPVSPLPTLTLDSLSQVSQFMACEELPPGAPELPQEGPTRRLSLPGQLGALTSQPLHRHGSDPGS
Cyclin-dependent kinase 5 (Homo sapiens), sequence (Q00535 whole entry, looked up): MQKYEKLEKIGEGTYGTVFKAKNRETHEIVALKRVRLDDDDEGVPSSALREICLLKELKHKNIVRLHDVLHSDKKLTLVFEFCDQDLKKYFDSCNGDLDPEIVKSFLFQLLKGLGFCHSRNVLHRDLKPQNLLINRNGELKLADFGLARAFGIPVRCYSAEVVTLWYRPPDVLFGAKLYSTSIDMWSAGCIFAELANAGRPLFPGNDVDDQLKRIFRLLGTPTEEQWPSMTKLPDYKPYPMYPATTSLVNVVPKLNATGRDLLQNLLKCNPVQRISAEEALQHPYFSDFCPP

## Cl.O=C1Nc2ccc(F)cc2/C1=C1/Nc2ccccc2/C1=N\OCCN1CCNCC1
MOLM-14 [1]
  GI50: 3.27 nM
MOLM-14 [2]
  GI50: 1.85 nM
[3]
  IC50: 9.52 nM
MV4-11
  GI50: 1 nM
[4]
  AUC(0-t) at 24 h: 417 ng·h/mL
[5]
  inhibition: Active
[6]
  inhibition: 54%
hERG (KCNH2)
  inhibition at 10 µM: 21.4%
[7]
  IC50: 2.04 nM
[8]
  inhibition: 87%
[9]
  Activity: Non-Toxic
[10]
  inhibition: 100%
[11]
  inhibition: 5%
MDA-MB-231
  inhibition at 1 µM: 8.95%
MOLM-14 [12]
  GI50: 1.87 nM
[13]
  inhibition: 89%
[14]
  inhibition: 86%
[15]
  ALD50: 2000 mg/kg
[16]
  IC50: 6.89 nM
[17]
  inhibition: 100%
[18]
  inhibition: 100%
MOLM-14 [19]
  GI50: 4.88 nM
[20]
  inhibition: 99%
[21]
  RatioGI50: 430
[22]
  inhibition: 21%
[23]
  IC50: 1.21 nM
[24]
  IC50: 0.87 nM
[25]
  inhibition: 98%
[26]
  IC50: 5.54 nM
[27]
  IC50: 3.01 nM
[28]
  bioavailability: 42.6%
